In the supplement of paper PMC10307832:

Assays:
Assay in all cases: relative viability (nuclei count vs DMSO), 5 days (fraction); higher = more cells survive
[1] = tested on: NCI-H1666
Outline: (§1)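 The day after seeding in 1536-well plates, lung cancer cell lines were treated by pin tool with a single drug, or with a fixed anchor-drug dose together with five library-drug doses (not always all listed) in √10 steps. After 5 days, a combined fix-and-stain solution (final 0.05% Triton X-100, 1% formaldehyde, 1 ug/ml Hoechst) was added. Nuclei counted on 4× images gave relative viability as treated counts over vehicle counts, reported as the median of duplicate plates.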

[2] = tested on: NCI-H23
Outline: as §1

[3] = tested on: HCC-78
Outline: as §1

[4] = tested on: NCI-H2126
Outline: as §1

[5] = tested on: NCI-H650
Outline: as §1

[6] = tested on: NCI-H520
Outline: as §1

[7] = tested on: NCI-H661
Outline: as §1

[8] = tested on: LC-2-ad
Outline: as §1

[9] = tested on: RERF-LC-KJ
Outline: as §1

[10] = tested on: HCC-827
Outline: as §1

[11] = tested on: NCI-H1915
Outline: as §1

[12] = tested on: NCI-H2087
Outline: as §1

[13] = tested on: NCI-H2347
Outline: as §1

[14] = tested on: EPLC-272H
Outline: as §1

[15] = tested on: COR-L 105
Outline: as §1

[16] = tested on: PC-14
Outline: as §1

[17] = tested on: H3255
Outline: as §1

[18] = tested on: LCLC-97TM1
Outline: as §1

[19] = tested on: NCI-H647
Outline: as §1

[20] = tested on: NCI-H2405
Outline: as §1

[21] = tested on: ChaGo-K-1
Outline: as §1

[22] = tested on: NCI-H322M
Outline: as §1

[23] = tested on: 201T
Outline: as §1

`Oc1nc(-c2ccc(C(F)(F)F)cc2)nc2c1CSCC2` [XAV939] + COc1cccc2cc(-c3nc([C@H]4CC[C@H](C(=O)O)CC4)n4ncnc(N)c34)[nH]c12 [OSI-027] (partner 0.5 µM) showed a relative viability ([1]; first compound 0.08 µM) of 0.883, a relative viability ([1]; first compound 0.253 µM) of 0.711 and a relative viability ([1]; first compound 0.8 µM) of 0.752. It also gave a relative viability ([1]; first compound 2.53 µM) of 0.627, a relative viability ([2]; first compound 0.08 µM) of 0.65 and a relative viability ([2]; first compound 0.253 µM) of 0.555. It also gave a relative viability ([2]; first compound 0.8 µM) of 0.628, a relative viability ([2]; first compound 2.53 µM) of 0.432 and a relative viability ([3]; first compound 0.08 µM) of 0.341. For the same molecule, the relative viability ([3]; first compound 0.253 µM) was 0.361, the relative viability ([3]; first compound 0.8 µM) was 0.356 and the relative viability ([3]; first compound 2.53 µM) was 0.297. For the same molecule, the relative viability ([4]; first compound 0.08 µM) was 0.651, the relative viability ([4]; first compound 0.253 µM) was 0.649 and the relative viability ([4]; first compound 0.8 µM) was 0.682. For the same molecule, the relative viability ([4]; first compound 2.53 µM) was 0.61, the relative viability ([5]; first compound 0.08 µM) was 0.52 and the relative viability ([5]; first compound 0.253 µM) was 0.565. For the same molecule, the relative viability ([5]; first compound 0.8 µM) was 0.493, the relative viability ([5]; first compound 2.53 µM) was 0.37 and the relative viability ([6]; first compound 0.08 µM) was 0.262. It also gave a relative viability ([6]; first compound 0.253 µM) of 0.225, a relative viability ([6]; first compound 0.8 µM) of 0.224 and a relative viability ([6]; first compound 2.53 µM) of 0.225. For the same molecule, the relative viability ([7]; first compound 0.08 µM) was 0.701, the relative viability ([7]; first compound 0.253 µM) was 0.719 and the relative viability ([7]; first compound 0.8 µM) was 0.696. The relative viability ([7]; first compound 2.53 µM) was 0.583, the relative viability ([8]; first compound 0.08 µM) was 0.907 and the relative viability ([8]; first compound 0.253 µM) was 0.815. It also gave a relative viability ([8]; first compound 0.8 µM) of 0.889, a relative viability ([8]; first compound 2.53 µM) of 0.864 and a relative viability ([9]; first compound 0.08 µM) of 0.607. The relative viability ([9]; first compound 0.253 µM) was 0.533, the relative viability ([9]; first compound 0.8 µM) was 0.464 and the relative viability ([9]; first compound 2.53 µM) was 0.526. The relative viability ([10]; first compound 0.08 µM) was 0.817, the relative viability ([10]; first compound 0.253 µM) was 0.744 and the relative viability ([10]; first compound 0.8 µM) was 0.826. For the same molecule, the relative viability ([10]; first compound 2.53 µM) was 0.711, the relative viability ([11]; first compound 0.08 µM) was 0.707 and the relative viability ([11]; first compound 0.253 µM) was 0.321. For the same molecule, the relative viability ([11]; first compound 0.8 µM) was 0.597, the relative viability ([11]; first compound 2.53 µM) was 0.589 and the relative viability ([12]; first compound 0.08 µM) was 0.833. The relative viability ([12]; first compound 0.253 µM) was 0.504, the relative viability ([12]; first compound 0.8 µM) was 0.444 and the relative viability ([12]; first compound 2.53 µM) was 0.46. For the same molecule, the relative viability ([13]; first compound 0.08 µM) was 0.571, the relative viability ([13]; first compound 2.53 µM) was 0.217 and the relative viability ([14]; first compound 0.08 µM) was 0.312. It also gave a relative viability ([14]; first compound 0.253 µM) of 0.22, a relative viability ([14]; first compound 0.8 µM) of 0.261 and a relative viability ([14]; first compound 2.53 µM) of 0.314. It also gave a relative viability ([15]; first compound 0.08 µM) of 0.722, a relative viability ([15]; first compound 0.253 µM) of 0.589 and a relative viability ([15]; first compound 0.8 µM) of 0.5. It also gave a relative viability ([15]; first compound 2.53 µM) of 0.482, a relative viability ([16]; first compound 0.08 µM) of 1.09 and a relative viability ([16]; first compound 0.253 µM) of 0.772. It also gave a relative viability ([16]; first compound 0.8 µM) of 0.725, a relative viability ([16]; first compound 2.53 µM) of 0.639 and a relative viability ([17]; first compound 0.08 µM) of 0.555. For the same molecule, the relative viability ([17]; first compound 0.253 µM) was 0.584, the relative viability ([17]; first compound 0.8 µM) was 0.6 and the relative viability ([17]; first compound 2.53 µM) was 0.384. The relative viability ([18]; first compound 0.08 µM) was 0.643, the relative viability ([18]; first compound 0.253 µM) was 0.566 and the relative viability ([18]; first compound 0.8 µM) was 0.545. For the same molecule, the relative viability ([18]; first compound 2.53 µM) was 0.609, the relative viability ([19]; first compound 0.08 µM) was 0.722 and the relative viability ([19]; first compound 0.253 µM) was 0.46. For the same molecule, the relative viability ([19]; first compound 0.8 µM) was 0.656, the relative viability ([19]; first compound 2.53 µM) was 0.464 and the relative viability ([20]; first compound 0.08 µM) was 0.605. For the same molecule, the relative viability ([20]; first compound 0.253 µM) was 0.586, the relative viability ([20]; first compound 0.8 µM) was 0.611 and the relative viability ([20]; first compound 2.53 µM) was 0.598. For the same molecule, the relative viability ([21]; first compound 0.08 µM) was 0.562, the relative viability ([21]; first compound 0.253 µM) was 0.534 and the relative viability ([21]; first compound 0.8 µM) was 0.533. It also gave a relative viability ([21]; first compound 2.53 µM) of 0.472, a relative viability ([22]; first compound 0.08 µM) of 0.615 and a relative viability ([22]; first compound 0.253 µM) of 0.594. It also gave a relative viability ([22]; first compound 0.8 µM) of 0.504, a relative viability ([22]; first compound 2.53 µM) of 0.406 and a relative viability ([23]; first compound 0.08 µM) of 0.61. The relative viability ([23]; first compound 0.253 µM) was 0.487, the relative viability ([23]; first compound 0.8 µM) was 0.575 and the relative viability ([23]; first compound 2.53 µM) was 0.622.
